Measured values: the NIST ThermoML archive (doi:10.1016/j.jct.2014.07.017)
Numbers after ± are expanded uncertainties.

Test: mn = molality of the nth substance listed, in mol/kg
Details: 298.15 K, 100 kPa, Liquid, Direct current cell with electrodes

CCNCC(O)c1cccc(O)c1.Cl (stereo unspecified) [1-(3-hydroxyphenyl)-2-ethylaminoethanol hydrochloride] + O
Details	electrical conductivity [S/m]
m1 = 0.01028	0.03 ± 0.001
m1 = 0.01115	0.033 ± 0.001
m1 = 0.01209	0.037 ± 0.001
m1 = 0.01313	0.041 ± 0.001
m1 = 0.01425	0.045 ± 0.001
m1 = 0.01546	0.051 ± 0.001
m1 = 0.01677	0.056 ± 0.001
m1 = 0.0182	0.061 ± 0.001
m1 = 0.01896	0.065 ± 0.001
m1 = 0.01974	0.068 ± 0.001
m1 = 0.02057	0.072 ± 0.001
m1 = 0.02143	0.075 ± 0.001
m1 = 0.02232	0.078 ± 0.001
m1 = 0.02325	0.082 ± 0.001
m1 = 0.02422	0.087 ± 0.001
m1 = 0.02523	0.09 ± 0.001
m1 = 0.02628	0.095 ± 0.001
m1 = 0.02737	0.101 ± 0.001
m1 = 0.02851	0.105 ± 0.001
m1 = 0.0297	0.109 ± 0.001
m1 = 0.03094	0.115 ± 0.001
m1 = 0.03222	0.12 ± 0.001
m1 = 0.03357	0.126 ± 0.001
m1 = 0.03497	0.132 ± 0.001
m1 = 0.03643	0.138 ± 0.001
m1 = 0.03795	0.145 ± 0.002
m1 = 0.03953	0.15 ± 0.002
m1 = 0.04117	0.155 ± 0.002
m1 = 0.04289	0.159 ± 0.002
m1 = 0.04468	0.165 ± 0.002
m1 = 0.04654	0.171 ± 0.002
m1 = 0.04848	0.177 ± 0.002
m1 = 0.0505	0.185 ± 0.002
m1 = 0.0526	0.191 ± 0.002
m1 = 0.05479	0.195 ± 0.002
m1 = 0.05708	0.203 ± 0.002
m1 = 0.05945	0.208 ± 0.002
m1 = 0.06193	0.216 ± 0.002
m1 = 0.06451	0.224 ± 0.002
m1 = 0.0672	0.232 ± 0.002
m1 = 0.07	0.241 ± 0.002
